Measurements as given in ChEMBL document CHEMBL1122580, “Adenosine deaminase inhibitors. Synthesis of deaza analogues of erythro-9-(2-hydroxy-3-nonyl)adenine” (J Med Chem, 1984).

biological target: T1, Adenosine deaminase (Bos taurus, UniProt P56658); test: Binding affinity against calf intestine adenosine deaminase enzyme
T1 sequence (P56658 whole entry): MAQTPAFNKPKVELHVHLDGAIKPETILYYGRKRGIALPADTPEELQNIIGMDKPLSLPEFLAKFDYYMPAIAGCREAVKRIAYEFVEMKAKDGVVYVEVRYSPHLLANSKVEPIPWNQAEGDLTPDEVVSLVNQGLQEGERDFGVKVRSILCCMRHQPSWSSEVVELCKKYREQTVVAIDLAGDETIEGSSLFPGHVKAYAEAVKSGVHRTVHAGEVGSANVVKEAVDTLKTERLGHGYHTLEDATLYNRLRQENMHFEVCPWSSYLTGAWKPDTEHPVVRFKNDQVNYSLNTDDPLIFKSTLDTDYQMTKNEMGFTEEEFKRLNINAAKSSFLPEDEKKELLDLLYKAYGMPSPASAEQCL

Row | Ki [µM] | Structure (SMILES)
1 | 0.01 | CCCCCCC(C(C)O)n1cnc2c(N)nccc21 (stereo not given)
2 | 0.84 | CCCCCCC(C(C)O)n1cnc2cncnc21 (stereo not given)
3 | 42 | OC[C@H]1OC(n2cnc3cccnc32)[C@H](O)[C@@H]1O (stereo not given in full)
4 | 360 | Nc1nccc2c1ncn2[C@@H]1O[C@H](CO)[C@@H](O)[C@H]1O
5 | 0.007 | CCCCCC[C@@H]([C@@H](C)O)n1cnc2c(N)ncnc21 [EHNA]
6 | 0.16 | CCCCCCC(C(C)O)n1cnc2c(N)ccnc21 (stereo not given)

Row | Structure (SMILES) | Ki [µM]
7 | Nc1ccnc2c1ncn2[C@@H]1O[C@H](CO)[C@@H](O)[C@H]1O | 0.66
8 | OC[C@H]1O[C@@H](n2cnc3cncnc32)[C@H](O)[C@@H]1O [NEBULARINE] | 15
9 | CCCCCCC(C(C)O)n1cnc2cnccc21 (stereo not given) | 0.12

biological target: T1, Adenosine deaminase; test: Binding affinity against calf intestine adenosine deaminase enzyme; Not Active

Row | Ki | Structure (SMILES)
10 | Not Active | OC[C@H]1O[C@@H](n2cnc3cnccc32)[C@H](O)[C@@H]1O
